Data published in PubChem BioAssay (NCI).
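Tested at 5 concentrations; 48 h exposure; 96-well plates; endpoints linearly interpolated, else capped at highest concentration. GI50 is the concentration that inhibits growth by half. Definition used: TGI = concentration required for complete inhibition of growth.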

What was measured:
Assay in all cases: NCI tumour cell line growth inhibition, 48 h
NCI-H23 lung = system: NCI-H23 lung
NCI-H460 lung = system: NCI-H460 lung
NCI-H522 lung = system: NCI-H522 lung
NCI/ADR-RES ovarian = system: NCI/ADR-RES ovarian
OVCAR-3 ovarian = system: OVCAR-3 ovarian
OVCAR-4 ovarian = system: OVCAR-4 ovarian
OVCAR-5 ovarian = system: OVCAR-5 ovarian
OVCAR-8 ovarian = system: OVCAR-8 ovarian
PC-3 prostate = system: PC-3 prostate
RPMI-8226 leukemia = system: RPMI-8226 leukemia
RXF 393 renal = system: RXF 393 renal
SF-268 CNS = system: SF-268 CNS
SF-295 CNS = system: SF-295 CNS
SF-539 CNS = system: SF-539 CNS
SK-MEL-2 melanoma = system: SK-MEL-2 melanoma
SK-MEL-28 melanoma = system: SK-MEL-28 melanoma
SK-MEL-5 melanoma = system: SK-MEL-5 melanoma
SK-OV-3 ovarian = system: SK-OV-3 ovarian
SN12C renal = system: SN12C renal
SNB-19 CNS = system: SNB-19 CNS
SNB-75 CNS = system: SNB-75 CNS
SR leukemia = system: SR leukemia
SW-620 colon = system: SW-620 colon
T-47D breast = system: T-47D breast
TK-10 renal = system: TK-10 renal
U251 CNS = system: U251 CNS
UACC-257 melanoma = system: UACC-257 melanoma
UACC-62 melanoma = system: UACC-62 melanoma
UO-31 renal = system: UO-31 renal

## O=c1oc2c3ccc4cnccc4c3[nH]c2c2ccccc12
NCI-H23 lung
  TGI: 80.1 µM
NCI-H460 lung
  GI50: 9.35 µM
  TGI: 30.2 µM
NCI-H522 lung
  GI50: 11.8 µM
  TGI: 77.1 µM
NCI/ADR-RES ovarian
  GI50: 66.4 µM
  TGI: > 100 µM
OVCAR-3 ovarian
  GI50: 18.3 µM
  TGI: 32.4 µM
OVCAR-4 ovarian
  GI50: 15.5 µM
  TGI: 31 µM
OVCAR-5 ovarian
  GI50: 16.9 µM
  TGI: 40.9 µM
OVCAR-8 ovarian
  GI50: 16.1 µM
  TGI: > 100 µM
PC-3 prostate
  GI50: 55.8 µM
  TGI: > 100 µM
RPMI-8226 leukemia
  GI50: 7.94 µM
  TGI: 33.4 µM
RXF 393 renal
  GI50: 5.72 µM
  TGI: 19.4 µM
SF-268 CNS
  GI50: 13.1 µM
  TGI: > 100 µM
SF-295 CNS
  GI50: 41.7 µM
  TGI: > 100 µM
SF-539 CNS
  GI50: 11.5 µM
  TGI: 25.2 µM
SK-MEL-2 melanoma
  GI50: 18.8 µM
  TGI: 54.8 µM
SK-MEL-28 melanoma
  GI50: 16.4 µM
  TGI: 32 µM
SK-MEL-5 melanoma
  GI50: 8.01 µM
  TGI: 22.2 µM
SK-OV-3 ovarian
  GI50: > 100 µM
  TGI: > 100 µM
SN12C renal
  GI50: 19.3 µM
  TGI: 85.5 µM
SNB-19 CNS
  GI50: 18.5 µM
  TGI: > 100 µM
SNB-75 CNS
  GI50: 20.6 µM
  TGI: 65.6 µM
SR leukemia
  GI50: 1.78 µM
  TGI: 4.19 µM
SW-620 colon
  GI50: 4.58 µM
  TGI: 23.5 µM
T-47D breast
  GI50: 9.78 µM
  TGI: > 100 µM
TK-10 renal
  GI50: 43.8 µM
  TGI: > 100 µM
U251 CNS
  GI50: 7.57 µM
  TGI: 20.8 µM
UACC-257 melanoma
  GI50: 20.3 µM
  TGI: 57.6 µM
UACC-62 melanoma
  GI50: 17.6 µM
  TGI: 42.1 µM
UO-31 renal
  GI50: 22.9 µM
  TGI: > 100 µM
